In US11548883B2, “Compounds as autotaxin inhibitors and pharmaceutical compositions comprising the same” (LegoChem Biosciences, Inc., priority 2017, dated 2023):
Structures can show the parent of a compound that is named as a salt.

Tests used:
Assay type in all cases: biochemical
[1] = system: LPA production in blood serum; assay: Inhibitory activity on LPA production in mouse blood serum; settings: mouse blood serum (m), 18:1 LPC added
[2] = system: LPA production in blood serum; assay: Inhibitory activity on LPA production in human blood serum; settings: human blood serum (h), 18:1 LPC added
[3] = molecular target: human ENPP2 (Homo sapiens (Human), UniProt Q13822); assay: Inhibitory activity on human ENPP2 (FS-3 assay); settings: human ENPP2, FS-3 substrate, Table 2
Procedure: Two-fold dilution of each test compound solution (10 μM, 100% dimethyl sulfoxide) is carried out on 96-well V bottom plate (Costar 3363). After ten-fold dilution of each the test compound solution (100% dimethyl sulfoxide) with deionized distilled water, 10 μL of the diluted each compound solution (10% dimethyl sulfoxide) was aliquoted to a black flat bottom 96-well plate (Costar 3915).

SMILES: O=C(Cn1cc(-c2cnc(NC3Cc4ccccc4C3)nc2)c(OCc2ccccc2)n1)N1CCc2[nH]nnc2C1 [Compound 63, 2-[3-(benzyloxy)-4-{2-[(2,3-dihydro-1H-inden-2-yl)amino]pyrimidin-5-yl}-1H-pyrazol-1-yl]-1-{1H,4H,5H,6H,7H-[1,2,3]triazolo[4,5-c]pyridin-5-yl}ethan-1-one]
- IC50 [1]: 12 nM
- IC50 [2]: 10 nM

SMILES: CN(C)c1nn(CC(=O)N2CCc3[nH]nnc3C2)cc1-c1cnc(NC2Cc3ccccc3C2)nc1 [Compound 74, 2-(4-{2-[(2,3-dihydro-1H-inden-2-yl)amino]pyrimidin-5-yl}-3-(dimethylamino)-1H-pyrazol-1-yl)-1-{1H,4H,5H,6H,7H-[1,2,3]triazolo[4,5-c]pyridin-5-yl}ethan-1-one]
- IC50 [3]: 1.7 nM
- IC50 [1]: 15 nM

SMILES: O=C(Cn1cc(-c2cnc(NC3Cc4ccccc4C3)nc2)cn1)N1CCc2[nH]nnc2C1 [Compound 56, 2-(4-{2-[(2,3-dihydro-1H-inden-2-yl)amino]pyrimidin-5-yl}-1H-pyrazol-1-yl)-1-{1H,4H,5H,6H,7H-[1,2,3]triazolo[4,5-c]pyridin-5-yl}ethan-1-one]
- IC50 [3]: 2.2 nM
- IC50 [1]: 13 nM

SMILES: O=C(Cn1cnc(-c2cnc(NC3Cc4ccccc4C3)nc2)c1)N1CCc2[nH]nnc2C1 [Compound 60, 2-(4-{2-[(2,3-dihydro-1H-inden-2-yl)amino]pyrimidin-5-yl}-1H-imidazol-1-yl)-1-{1H,4H,5H,6H,7H-[1,2,3]triazolo[4,5-c]pyridin-5-yl}ethan-1-one]
- IC50 [3]: 1.8 nM
- IC50 [1]: 11 nM

SMILES: O=C(Cn1cc(-c2cnc(NC3Cc4ccccc4C3)nc2)c(CN2CCOCC2)n1)N1CCc2[nH]nnc2C1 [Compound 80, 2-(4-{2-[(2,3-dihydro-1H-inden-2-yl)amino]pyrimidin-5-yl}-3-(morpholin-4-ylmethyl)-1H-pyrazol-1-yl)-1-{1H,4H,5H,6H,7H-[1,2,3]triazolo[4,5-c]pyridin-5-yl}ethan-1-one]
- IC50 [3]: < 1.56 nM
- IC50 [1]: 6 nM

SMILES: O=C1CN(Cc2nn(CC(=O)N3CCc4[nH]nnc4C3)cc2-c2cnc(NC3Cc4ccccc4C3)nc2)CCN1 [Compound 82, 4-[(4-{2-[(2,3-dihydro-1H-inden-2-yl)amino]pyrimidin-5-yl}-1-(2-oxo-2-{1H,4H,5H,6H,7H-[1,2,3]triazolo[4,5-c]pyridin-5-yl}ethyl)-1H-pyrazol-3-yl)methyl]piperazin-2-one]
- IC50 [3]: < 1.56 nM
- IC50 [1]: 8 nM

SMILES: O=C(Cn1cc(-c2cnc(NC3Cc4ccccc4C3)nc2)c(OCCN2CCOCC2)n1)N1CCc2[nH]nnc2C1 [Compound 66, 2-(4-{2-[(2,3-dihydro-1H-inden-2-yl)amino]pyrimidin-5-yl}-3-[2-(morpholin-4-yl)ethoxy]-1H-pyrazol-1-yl)-1-{1H,4H,5H,6H,7H-[1,2,3]triazolo[4,5-c]pyridin-5-yl}ethan-1-one]
- IC50 [3]: 1.9 nM
- IC50 [1]: 12 nM

SMILES: O=C(Cn1cc(-c2cnc(NC3Cc4ccccc4C3)nc2)c(OC2CNC2)n1)N1CCc2[nH]nnc2C1 [Compound 62, 2-[3-(azetidin-3-yloxy)-4-{2-[(2,3-dihydro-1H-inden-2-yl)amino]pyrimidin-5-yl}-1H-pyrazol-1yl]-1-{1H,4H,5H,6H,7H-[1,2,3]triazolo[4,5-c]pyridin-5-yl}ethan-1-one hydrochloride]
- IC50 [3]: 2.4 nM
- IC50 [1]: 22 nM

SMILES: CCc1nn(CC(=O)N2CCc3[nH]nnc3C2)cc1-c1cnc(NC2Cc3ccccc3C2)nc1 [Compound 79, 2-(4-{2-[(2,3-dihydro-1H-inden-2-yl)amino]pyrimidin-5-yl}-3-ethyl-1H-pyrazol-1-yl)-1-{1H,4H,5H,6H,7H-[1,2,3]triazolo[4,5-c]pyridin-5-yl}ethan-1-one]
- IC50 [3]: 1.6 nM
- IC50 [2]: 5 nM

SMILES: CCN1CC(Oc2nn(CC(=O)N3CCc4[nH]nnc4C3)cc2-c2cnc(NC3Cc4ccccc4C3)nc2)C1 [Compound 68, 2-(4-{2-[(2,3-dihydro-1H-inden-2-yl)amino]pyrimidin-5-yl}-3-[(1-ethylazetidin-3-yl)oxy]-1H-pyrazol-1-yl)-1-{1H,4H,5H,6H,7H-[1,2,3]triazolo[4,5-c]pyridin-5-yl}ethan-1-one]
- IC50 [3]: 1.8 nM
- IC50 [1]: 32 nM

SMILES: O=C(Cn1cc(-c2cnc(NC3Cc4ccccc4C3)nc2)c(CN2CCCCC2)n1)N1CCc2[nH]nnc2C1 [Compound 81, 2-(4-{2-[(2,3-dihydro-1H-inden-2-yl)amino]pyrimidin-5-yl}-3-(piperidin-1-ylmethyl)-1H-pyrazol-1-yl)-1-{1H,4H,5H,6H,7H-[1,2,3]triazolo[4,5-c]pyridin-5-yl}ethan-1-one]
- IC50 [3]: < 1.56 nM
- IC50 [1]: 5 nM

SMILES: O=C(Cn1cc(-c2cnc(NC3Cc4ccccc4C3)nc2)c(O)n1)N1CCc2[nH]nnc2C1 [Compound 65, 2-(4-{2-[(2,3-dihydro-1H-inden-2-yl)amino]pyrimidin-5-yl}-3-hydroxy-1H-pyrazol-1-yl)-1-{1H,4H,5H,6H,7H-[1,2,3]triazolo[4,5-c]pyridin-5-yl}ethan-1-one]
- IC50 [3]: < 1.56 nM
- IC50 [1]: 30 nM

SMILES: O=C(O)c1ccc(COc2nn(CC(=O)N3CCc4[nH]nnc4C3)cc2-c2cnc(NC3Cc4ccccc4C3)nc2)cc1 [Compound 72, 4-{[(4-{2-[(2,3-dihydro-1H-inden-2-yl)amino]pyrimidin-5-yl}-1-(2-oxo-2-{1H,4H,5H,6H,7H-[1,2,3]triazolo[4,5-c]pyridin-5-yl}ethyl)-1H-pyrazol-3-yl)oxy]methyl}benzoic Acid]
- IC50 [3]: 3.4 nM
- IC50 [1]: 42 nM
